Assay results reported in patent US6528516B1, “Methods for reducing intraocular pressure using A3 adenosine receptor antagonists” (Trustees of the University of Pennsylvania, The Center for …, priority 1998, dated 2003).
“Also recorded” adds a separate entry of the source.

Experiments:
human A3 receptor = molecular target: T1, human A3 receptor (Homo sapiens, UniProt P0DMS8); assay: Radioligand binding, [125I]AB-MECA, HEK-293 cell membranes; set-up: host or cells: HEK-293; settings: read-out: Ki(hA3)
T1 sequence (P0DMS8 1-318): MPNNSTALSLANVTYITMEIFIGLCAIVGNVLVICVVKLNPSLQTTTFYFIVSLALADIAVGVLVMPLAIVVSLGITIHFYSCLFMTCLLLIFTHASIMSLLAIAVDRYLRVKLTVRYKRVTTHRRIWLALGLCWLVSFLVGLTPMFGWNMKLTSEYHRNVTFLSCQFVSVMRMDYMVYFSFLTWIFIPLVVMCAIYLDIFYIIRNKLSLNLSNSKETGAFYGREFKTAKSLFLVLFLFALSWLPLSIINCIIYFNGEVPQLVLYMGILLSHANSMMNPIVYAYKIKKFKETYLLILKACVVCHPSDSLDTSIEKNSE
Description: Natl. Acad. Sci. […] Natl. Acad. Sci. U.S.A. 89:7432-7436, 1992) was performed as described at 4° C. (Olah et al., Mol. Pharmacol. 45:978-982, 1994). The assay medium consisted of a buffer containing 10 mM Mg^2+, 50 mM Tris, 3 units/mL adenosine deaminase, and 1 mM EDTA, at pH 8.0 (4° C.). […] Incubations were terminated by rapid filtration over Whatman GF/B filters, using a Brandell cell harvester (Brandell, Gaithersburg, MD). The tubes were rinsed three times with 3 mL buffer each. At least five different concentrations of competitor, spanning 3 orders of magnitude adjusted appropriately for the IC50 of each compound, were used. IC50 values, calculated with the nonlinear regression method implemented in the InPlot program (Graph-PAD, San Diego, Calif.), were converted to apparent Ki values using the Cheng-Prusoff equation (Cheng et al., Biochem.

[1] = tested on: HCE (human ciliary epithelial) cell line, NPE cells; assay: Cell volume (shrinkage) of NPE cells in isosmotic solution, Coulter Counter, 5 μM gramicidin; assay type: cell-based
Description: A 0.5-ml aliquot of the HCE cell suspension in DMEM was added to 20 ml of each test solution, which contained (in mM): 110.0 NaCl, 15.0HEPES [4-(2-hydroxyethyl)-1-piperazineethanesulfonic acid], 2.5 CaCl2, 1.2 MgCl2, 4.7 KCl, 1.2 KH2PO4, 30.0 NaHCO3, and 10.0 glucose, at a pH of 7.4 and osmolality of 298-305 mOsm. Parallel aliquots of cells were studied on the same day. One aliquot usually served as a control, and the others were exposed to different experimental conditions at the time of suspension. The same amount of solvent vehicle (dimethylformamide, DMSO or ethanol) was always added to the control and experimental aliquots. The sequence of studying the suspensions was varied to preclude systematic time-dependent artifacts (Civan et al., Exp. Eye Res. 54:181-191, 1992).
Cell volumes of isosmotic suspensions were measured with a Coulter Counter (model ZBI-Channelyzer II), using a 100-μm aperture (Civan et al., supra., 1994). As previously described (Wax et al., supra., 1993), the cell volume (vC) of the suspension was taken as the peak of the distribution function. Cell shrinkage was fit as a function of time (t) to a monoexponential function:
vC=v∞+(v0−v∞)−[e^−(t−t^0^)/τ] {1}
where v∞ is the steady-state cell volume, v0 is the cell volume at the first point (t0) of the time course to be fit, and τ is the time constant of the shrinkage. For purposes of data reduction, the data were normalized to the first time point, taken to be 100% isotonic volume. Fits were obtained by nonlinear least-squares regression analysis, permitting both v∞and τ to be variables.
In order to differentiate among these receptors, the experiments were repeated in the present study using a series of agonists and antagonists selective for these receptors. As we wished to identify the effects of these receptors specifically on Cl^− channels, 5 μM gramicidin D was included in all solutions to eliminate any potential contribution from K^+ channels. This ionophore readily partitions into plasma membranes to form a cation-selective pore, and is widely used for studying volume regulation (Hoffmann et al., in Interaction of Cell Volume and Cell Function, Lang et al., eds., Springer, Heidelberg, Germany, pp. 188-248, (ACEP Series 14), 1993)). Under these conditions, release of cell Cl^− becomes the rate-limiting factor in both hypo-(Civan et al., Exp. Eye Res. 54:181-191, 1992) and isoosmotic cell shrinkage (Carre et al., supra., 1997).

[2] = tested on: bovine pigmented ciliary epithelial (PE) cells; assay: Cell volume (shrinkage) of PE cells in isoosmotic suspension, Coulter Counter; assay type: cell-based; settings: for effect of estradiol on shrinkage produced by ATP and tamoxifen: 100 nM estradiol; for effect of estradiol on cell volume in the absence of tamoxifen: 100 nM, FIG. 16B; for shrinkage by agent in the presence or absence of ATP / effect of agent on shrinkage in the presence of ATP: 10 μM agent; for shrinkage by agent in the presence or absence of ATP: with or without 100 μM ATP; for effect of PKC modulator on cell volume in the presence of ATP: 0.3 μM staurosporine, 250 μM DiC8
[3] = 10 μM trifluoperazine alone, FIG. 14B
[4] = 100 μM ATP + 10 μM TMX + 10 μM trifluoperazine, FIG. 14A
[5] = 100 μM ATP + 10 μM agent, FIG. 14A
[6] = 100 μM ATP + 10 μM trifluoperazine, FIG. 14B
[7] = FIG. 2D, 100 nM Cl-IB-MECA, IB-MECA in parallel
[8] = 100 μM ATP + 10 μM agent, FIG. 13A

## CCOC(=O)c1c(CC)c(C(=O)SCC)c(CC)[n+](CC)c1-c1ccccc1 [Compound 12, 1-Ethyl-2,4-diethyl-3-(ethylsufanylcarbonyl)-5-ethyloxycarbonyl-6-phenylpyridinium Iodide]
Human A3 receptor
  Ki: 577 nM

## CCNC(=O)[C@H]1O[C@@H](n2cnc3c(N)nc(NCCc4ccc(CCC(=O)O)cc4)nc32)[C@H](O)[C@@H]1O [CGS-21680, 2-[4-[(2-carboxyethyl)phenyl]ethylamino]-5′-N-ethylcarbamoyladenosine]
[1]; 100 nM agonist
  effect of adenosine-receptor agonist on isoosmotic volume: no detectable effect
[1]; 3 μM agonist
  effect of adenosine-receptor agonist on isoosmotic volume: triggered isoosmotic shrinkage

## O=S(=O)(O)c1cc(N=C=S)ccc1C=Cc1ccc(N=C=S)cc1S(=O)(=O)O [DIDS, 4,4′-diisothiocyano-2,2′-disulfonic acid]
[2]; DIDS 500 μM, NPPB 100 μM
  effect of Cl− channel blocker on ATP, tamoxifen-activated shrinkage: inhibited the volume reduction; also recorded: reduced

## CCOC(=O)c1c(CCN2C(=O)c3ccccc3C2=O)c(C(=O)SCC)c(CC)[n+](C)c1-c1ccccc1 [Compound 19]
Human A3 receptor
  Ki: 1250 nM

## C[C@]12CC[C@@H]3c4ccc(O)cc4CC[C@H]3[C@@H]1CC[C@H]2O [17α-estradiol]
[2]; 100 μM ATP, 10 μM tamoxifen
  effect of estradiol on shrinkage produced by ATP and tamoxifen: no significant effect
[2]
  effect of estradiol on cell volume in the absence of tamoxifen: very small effects

## CCOC(=O)c1c(CC)c(C(=O)SCC)c(C)[n+](C)c1-c1ccccc1 [Compound 10, 1-Methyl-2-methyl-4-ethyl-3-(ethylsulfanylcarbonyl)-5-ethyloxycarbonyl-6-phenylpyridinium Iodide]
Human A3 receptor
  Ki: 379 nM

## CCCOC(=O)c1c(CCSC(C)=O)c(C(=O)SCC)c(CC)[n+](C)c1-c1ccccc1 [Compound 18, 1-Methyl-2-ethyl-4-(2-acetylthioethyl)-3-(ethylsulfanylcarbonyl)-5-propyloxycarbonyl-6-phenylpyridinium Iodide]
Human A3 receptor
  Ki: 538 nM

## CCCOC(=O)c1c(CCC)c(C(=O)SCC)c(CCOCc2ccccc2)[n+](C)c1-c1ccccc1 [Compound 22, 1-Methyl-2-(2-benzyloxylethyl)-4-propyl-3-(ethylsulfanylcarbonyl)-5-propyloxycarbonyl-6-phenylpyridinium Iodide]
Human A3 receptor
  Ki: 348 nM

## CN1CCN(CCCN2c3ccccc3Sc3ccc(C(F)(F)F)cc32)CC1 [trifluoperazine]
[2]
  shrinkage by agent in the presence or absence of ATP: the same, whether or not ATP was present; also recorded: reduced cell volume on their own
[2]; [3]
  steady-state cell volume (v∞): 96.8±0.2%
  time constant of the shrinkage (τ): 0.9 ± 0.6 min
[2]; 10 μM trifluoperazine, 100 μM ATP
  effect of trifluoperazine on shrinkage produced by ATP alone: enhanced the shrinkage produced by ATP alone
[2]; 10 μM trifluoperazine, 100 μM ATP, 10 μM tamoxifen
  effect of trifluoperazine on the response to ATP+TMX: reduced the response
[2]; [4]
  steady-state cell volume (v∞): 95.7±0.4%
  time constant of the shrinkage (τ): 3.9 ± 1.2 min
[2]; [5]
  steady-state cell volume (v∞): 96.2±0.3%
  time constant of the shrinkage (τ): 6.8 ± 1.4 min
[2]; [6]
  steady-state cell volume (v∞): 96.7±0.3%
  time constant of the shrinkage (τ): 0.5 ± 1.5 min

## CCOC(=O)c1c(CC)c(C(=O)SCC)c(C2CCC2)[n+](C)c1-c1ccccc1 [Compound 21, 1-Methyl-2-cyclobutyl-4-ethyl-3-(ethylsulfanylcarbonyl)-5-ethyloxycarbonyl-6-phenyl pyridinium Iodide]
Human A3 receptor
  Ki: 1410 nM

## CCCOC(=O)c1c(CC)c(C(=O)SCC)c(CC)[n+](C)c1-c1ccccc1 [Compound 15, 1-Methyl-2-ethyl-4-ethyl-3-(ethylsulfanylcarbonyl)-5-propyloxycarbonyl-6-phenylpyridinium Iodide]
Human A3 receptor
  Ki: 483 nM

## CNC(=O)[C@H]1O[C@@H](n2cnc3c(NCc4cccc(I)c4)nc(Cl)nc32)[C@H](O)[C@@H]1O [Cl-IB-MECA]
[1]; [7]
  steady-state cell volume (V∞): 97.9±0.2%
  time constant of the shrinkage (τ): 2.5 ± 1.3 min

## CCC[n+]1c(CC)c(C(=O)SCC)c(CC)c(C(=O)OCC)c1-c1ccccc1 [Compound 13, 1-Propyl-2,4-diethyl-3-(ethylsulfanylcarbonyl)-5-ethyloxycarbonyl-6-phenylpyridinium Iodide]
Human A3 receptor
  Ki: 1350 nM

## CN[C@@H]1C[C@H]2O[C@@](C)([C@@H]1OC)n1c3ccccc3c3c4c(c5c6ccccc6n2c5c31)C(=O)NC4 [staurosporine]
[2]; 100 μM ATP
  effect of PKC modulator on cell volume in the presence of ATP: small, insignificant shrinkage

## OC[C@H]1O[C@@H](n2cnc3c(NC4CCCC4)ncnc32)[C@H](O)[C@@H]1O [CPA, N^6-cyclopentyladenosine]
[1]; 30 nM agonist
  effect of adenosine-receptor agonist on isoosmotic volume: no significant shrinkage
[1]; 100 nM agonist
  effect of adenosine-receptor agonist on isoosmotic volume: small slow effect of uncertain significance; also recorded: little effect
[1]; 1 μM agonist
  effect of adenosine-receptor agonist on isoosmotic volume: no significant shrinkage
[1]; 3 μM agonist
  effect of adenosine-receptor agonist on isoosmotic volume: no significant shrinkage; also recorded: none at all

## CCCCCCCC(=O)OCC(CO)OC(=O)CCCCCCC (centres unmarked) [DiC8]
[2]; 100 μM ATP
  effect of PKC modulator on cell volume in the presence of ATP: no significant effect

## CCCCc1c(C(=O)SCC)c(CC)c(C(=O)OCC)c(-c2ccccc2)[n+]1C [Compound 20, 1-Methyl-2-butyl-4-ethyl-3-(ethylsulfanylcarbonyl)-5-ethyloxycarbonyl-6-phenylpyridinium Iodide]
Human A3 receptor
  Ki: 436 nM

## CCSC(=O)c1c(CC)c(C(=O)OCCF)c(-c2ccccc2)[n+](C)c1CC [Compound 14]
Human A3 receptor
  Ki: 364 nM

## C[N+](C)(C)CCOC(N)=O [carbachol]
[2]; 100 μM ATP, FIG. 13A
  effect of agent on shrinkage in the presence of ATP: did trigger a prompt shrinkage; also recorded: enhanced shrinkage
[2]
  shrinkage by agent in the presence or absence of ATP: nearly the same degree of shrinkage in the presence or absence of 100 μM ATP; also recorded: reduced cell volume on their own
[2]; [8]
  steady-state cell volume (v∞): 94.2±0.4%
  time constant of the shrinkage (τ): 5.6 ± 1.2 min

## NCCc1c[nH]cn1 [histamine]
[2]; 100 μM ATP, FIG. 13A
  effect of agent on shrinkage in the presence of ATP: did not enhance the volumetric response
[2]; [8]
  steady-state cell volume (v∞): 97.4±0.5%
  time constant of the shrinkage (τ): 21.0 ± 8.0 min

## C[C@]12CC[C@@H]3c4ccc(O)cc4CC[C@H]3[C@@H]1CC[C@@H]2O [17β-estradiol]
[2]; 100 nM 17β-estradiol, 100 μM ATP
  effect of estradiol together with ATP on cell volume: small and slow shrinkage
[2]; 100 μM ATP, 10 μM tamoxifen
  effect of estradiol on shrinkage produced by ATP and tamoxifen: reduced; also recorded: significantly inhibited
[2]
  effect of estradiol on cell volume in the absence of tamoxifen: very small effects
